What was measured:
rabbits = assay: Hypnotic potency and recovery after IV bolus in rabbits; type: in vivo, rabbit
Experimental: All tests were performed during the light period. Groups of mice, rats and rabbits were injected intravenously (lateral tail vein) over 10 s with each dose of test compound, placed in separate boxes to reduce external stimuli and assessed for the loss of righting reflex. Dosing was performed using mg/kg scheme. A set of dose levels was chosen, and depending on whether the loss of righting reflex was observed, extra doses were introduced to provide data for the loss of righting reflex over a narrow dose range to allow potency calculations.
Immediately following the injection, the mice, rats and rabbits were tested for loss of righting reflex. […] Once a loss was observed, the interval between the loss of righting reflex and the return to righting reflex was recorded. […] To compare the duration of LORR of each compound at equipotent doses, groups of mice, rats and rabbits were injected with each compound at 2× HD50 over 10 s.
Time to walk was the time required after righting before mice and rabbits walked from the center to the periphery of a 30-cm diameter dise.

[1] = tested on: GABAA and dopamine D2, D3, H1, 5HT1A, 5HT2A, 5HT2C, 5HTT, α1 and α2 receptors; details: 50 µmol, GABAA vs off-target receptors
Experimental: All the new compounds were dissolved in 5% DMSO.
Total binding was determined in the absence of no-specific binding and compounds. Specific binding was determined in the presence of compounds. […]
Rat cerebral cortex was homogenized in 20 volumes of ice-cold Tris-HCl buffer (50 mM, pH 7.7) using an ULTRA TURAX homogeniser, and was then centrifuged at 32000 g for 10 min. […] The final pellet was resuspended in Tris-HCl buffer containing 10 µM Pargyline, 4 mM CaCl2 and 0.1% ascorbic acid. […] The incubation was followed by a rapid vacuum filtration through Whatman GF/B glass filters, and the filtrates were washed twice with 5 mL cold buffer and transferred to scintillation vials. Scintillation fluid (3.0 mL) was added and the radioactivity bound was measured using a Beckman LS 6500 liquid scintillation counter.
Rat cerebral cortex was homogenized in 20 volumes of ice-cold Tris-HCl buffer (50 mM, pH 7.7) using an ULTRA TURAX homogeniser, and centrifuged at 32000 g for 20 min. The resulting pellet was resuspended in the same quantity of the buffer centrifuged for 20 min. […] Scintillation fluid (3.0 mL) was added and the radioactivity bound was measured using a Beckman LS 6500 liquid scintillation counter.
The resulting pellet was resuspended in the same quantity of the buffer centrifuged for 20 min.

rat = assay: Therapeutic index (LD50/HD50) in rat; type: in vivo
Experimental: (§1) The LD50 was determined in mice, rats, and rabbits and the TI was calculated as LD50/HD50.

[2] = In vitro metabolic half-life in rabbit whole blood; type: in vitro ADME; details: male, New Zealand White rabbit (n = 3), 37°C, read-out: Mean t1/2 Value
Experimental: (§2) Human whole blood stability experiments were conducted in whole blood from four human donors (male, 18–25 years). Single experiments were conducted with pooled blood from Sprague-Dawley rats (male, 8 weeks, n = 3), New Zealand White rabbits (male, 8–10 weeks, n = 3), Beagle dogs (male, 2–3 years, n = 3) and Cynomolgus monkeys (male, 3–4 years, n = 3). All the blood samples were provided by Xuzhou Medical College. A 1.35-ml aliquot of blood was warmed at 37°C for 5 min and hypnotic (from a 40 mM stock in DMSO solution) was added to a final concentration of 200 µM. After the specified incubation time, a 150-µl sample was removed and the metabolic reaction was quenched using 150-µl acetonitrile. Zero time-point samples were prepared by adding 150-µl acetonitrile (using a 4 mM stock in DMSO) to 150-µl blood before addition of the hypnotic. The quenched samples were centrifuged, and the supernatant was separated and stored at −20°C until analyzed. Hypnotic concentrations in thawed samples were determined by high-performance liquid chromatography using a 3-µm phenyl 4.6×50-mm C-A-25, ACE column with the UV detector set at 240 nm. […] The lower limit of quantitation of this assay is 3 µM and the accuracy within 15% at 10 µM. The metabolic half-lives were quantified from the incubation time-dependent change in drug concentration.

mice = assay: in vivo; details: LD50/HD50
Experimental: as §1

in vivo = details: mouse, in vivo; mice, 95% confidence limits
Experimental: as §1

[3] = In vitro metabolic half-life in rat whole blood; type: in vitro ADME; details: male, Sprague-Dawley Rat (n = 3), 37°C, read-out: Mean t1/2 Value
Experimental: as §2

[4] = In vitro metabolic half-life in monkey whole blood; type: in vitro ADME; details: male, Cynomolgus monkey (n = 3), 37°C, read-out: Mean t1/2 Value
Experimental: as §2

For `CCOc1cc(CC(=O)OCC(F)(F)F)ccc1OCC(=O)N(CC)CC` [Compound 5j, 2,2,2-trifluoroethyl 2-(4-(2-(diethylamino)-2-oxoethoxy)-3-ethoxyphenyl)acetate], the “Duration of LORR” value (rabbits; 2× HD50 dose, mean ± SD) was 208.3 ± 19.8 s, the Time to walk (rabbits; 2× HD50 dose, mean ± SD) was 15.5 ± 7.5 s and the HD50 (rabbits; IV, 95% confidence limits) was 6.2 (4.7∼7.0) mg/kg. The binding selectivity profile [1] was “selective binding to the GABAA receptor”, the TI (rat) was 13.3 and the half-life at 200 µM [2] was 11.6 ± 1.6 min. For the same compound, the TI (mice) was 7.8, the LD50 (in vivo) was 192 mg/kg and the half-life at 200 µM [3] was 0.4 ± 0.1 min. It also gave a half-life at 200 µM [4] of 48.9 ± 8.8 min.
